What was measured:
Assay in all cases: relative viability (nuclei count vs DMSO), 5 days (fraction); higher = more cells survive
Omipalisib = compound: COc1ncc(-c2ccc3nccc(-c4ccnnc4)c3c2)cc1NS(=O)(=O)c1ccc(F)cc1F [Omipalisib]
Procedure, shortened: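 Viability was defined as treated-well nuclei divided by vehicle-well nuclei, with the median taken over replicate plates. Cells from lung cancer lines sat overnight at 37 °C in 1536-well plates, received five √10-spaced library-drug doses by pinning on vehicle-anchored plates, and grew 5 days without medium change before one-step fixation, permeabilisation and Hoechst staining, 4× imaging and MetaXpress nuclear counts. Only plates with control CV under 25% and at least one doubling were kept.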

Omipalisib + Alpelisib = compound: COc1ncc(-c2ccc3nccc(-c4ccnnc4)c3c2)cc1NS(=O)(=O)c1ccc(F)cc1F [Omipalisib] + Cc1nc(NC(=O)N2CCC[C@H]2C(N)=O)sc1-c1ccnc(C(C)(C)C(F)(F)F)c1 [Alpelisib] (partner 2 µM)
Procedure, shortened: (§1)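 Dosing by pin tool came one day after lung cancer cell lines were seeded in 1536-well plates, using either one drug or a fixed anchor-drug dose plus five library-drug doses (not always all listed) in √10 steps. After 5 days, nuclei were counted on 4× images. Relative viability is treated-well nuclei count divided by vehicle-well nuclei count, and values are medians of duplicate plates.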

Omipalisib + Phenformin = compound: COc1ncc(-c2ccc3nccc(-c4ccnnc4)c3c2)cc1NS(=O)(=O)c1ccc(F)cc1F [Omipalisib] + N=C(N)NC(=N)NCCc1ccccc1 [Phenformin] (partner 250 µM)
Procedure, shortened: as §1

Omipalisib + AZD7762 = compound: COc1ncc(-c2ccc3nccc(-c4ccnnc4)c3c2)cc1NS(=O)(=O)c1ccc(F)cc1F [Omipalisib] + NC(=O)Nc1cc(-c2cccc(F)c2)sc1C(=O)N[C@H]1CCCNC1 [AZD7762] (partner 0.2 µM)
Procedure, shortened: as §1

Omipalisib + Olaparib = compound: COc1ncc(-c2ccc3nccc(-c4ccnnc4)c3c2)cc1NS(=O)(=O)c1ccc(F)cc1F [Omipalisib] + O=C(c1cc(Cc2n[nH]c(=O)c3ccccc23)ccc1F)N1CCN(C(=O)C2CC2)CC1 [Olaparib] (partner 8 µM)
Procedure, shortened: as §1

Omipalisib + Crizotinib = compound: COc1ncc(-c2ccc3nccc(-c4ccnnc4)c3c2)cc1NS(=O)(=O)c1ccc(F)cc1F [Omipalisib] + C[C@@H](Oc1cc(-c2cnn(C3CCNCC3)c2)cnc1N)c1c(Cl)ccc(F)c1Cl [Crizotinib] (partner 1 µM)
Procedure, shortened: as §1

| Cell Line | relative viability (Omipalisib; 0.0003 µM) | relative viability (Omipalisib; 0.003 µM) | relative viability (Omipalisib; 0.03 µM) | relative viability (Omipalisib + Alpelisib; first compound 0.0003 µM) | relative viability (Omipalisib + Alpelisib; first compound 0.003 µM) | relative viability (Omipalisib + Alpelisib; first compound 0.03 µM) | relative viability (Omipalisib + Phenformin; first compound 0.0003 µM) | relative viability (Omipalisib + Phenformin; first compound 0.003 µM) | relative viability (Omipalisib + Phenformin; first compound 0.03 µM) | relative viability (Omipalisib + AZD7762; first compound 0.0003 µM) | relative viability (Omipalisib + AZD7762; first compound 0.003 µM) | relative viability (Omipalisib + AZD7762; first compound 0.03 µM) | relative viability (Omipalisib + Olaparib; first compound 0.0003 µM) | relative viability (Omipalisib + Olaparib; first compound 0.003 µM) | relative viability (Omipalisib + Olaparib; first compound 0.03 µM) | relative viability (Omipalisib + Crizotinib; first compound 0.0003 µM) | relative viability (Omipalisib + Crizotinib; first compound 0.003 µM) | relative viability (Omipalisib + Crizotinib; first compound 0.03 µM) |
| --- | --- | --- | --- | --- | --- | --- | --- | --- | --- | --- | --- | --- | --- | --- | --- | --- | --- | --- |
| LOU-NH91 | 0.999 | 0.784 | 0.65 | 0.681 | 0.677 | 0.53 | 0.738 | 0.522 | 0.504 | 0.772 | 0.566 | 0.515 | 0.909 | 0.852 | 0.617 | 0.737 | 0.65 | 0.504 |
| LU99A | 0.936 | 0.847 | 0.395 | 0.492 | 0.439 | 0.277 | 0.802 | 0.695 | 0.578 | 0.291 | 0.265 | 0.165 | 0.271 | 0.27 | 0.214 | 0.55 | 0.449 | 0.225 |
| LXF-289 | 1.04 | 1.08 | 0.943 | 1.06 | 1.02 | 0.792 | 0.505 | 0.416 | 0.396 | 1.11 | 1.26 | 0.911 | 0.943 | 1.05 | 0.455 | 0.846 | 0.924 | 0.712 |
| NCI-H23 | 0.913 | 0.594 | 0.464 | 0.596 | 0.444 | 0.381 | 0.773 | 0.635 | 0.576 | 0.278 | 0.227 | 0.223 | 0.384 | 0.242 | 0.143 | 0.425 | 0.263 | 0.283 |
| NCI-H322M | 0.892 | 0.728 | 0.622 | 1.07 | 0.77 | 0.452 | 0.739 | 0.57 | 0.453 | 0.54 | 0.455 | 0.482 | 0.802 | 0.815 | 0.515 | 0.859 | 0.843 | 0.532 |
| NCI-H358 | 0.893 | 0.561 | 0.388 | 0.963 | 0.594 | 0.524 | 0.259 | 0.211 | 0.145 | 0.43 | 0.366 | 0.244 | 0.544 | 0.38 | 0.324 | 0.502 | 0.6 | 0.303 |
| NCI-H441 | 0.832 | 0.574 | 0.427 | 0.585 | 0.588 | 0.441 | 0.703 | 0.659 | 0.318 | 1.02 | 1.02 | 0.717 | 0.55 | 0.321 | 0.37 | 0.462 | 0.32 | 0.367 |
| NCI-H460 | 1 | 0.787 | 0.334 | 0.362 | 0.241 | 0.0908 | 0.461 | 0.24 | 0.0524 | 0.645 | 0.621 | 0.277 | 0.337 | 0.373 | 0.167 | 0.772 | 0.589 | 0.132 |
| NCI-H596 | 0.944 | 0.673 | 0.421 | 0.491 | 0.363 | 0.395 | 0.692 | 0.445 | 0.387 | 0.966 | 0.546 | 0.479 | 0.639 | 0.604 | 0.402 | 0.93 | 0.561 | 0.361 |
| NCI-H647 | 0.949 | 0.696 | 0.42 | 1.09 | 0.98 | 0.33 | 0.402 | 0.267 | 0.185 | 0.403 | 0.322 | 0.215 | 0.582 | 0.426 | 0.233 | 0.979 | 0.921 | 0.443 |
| NCI-H650 | 0.876 | 0.745 | 0.51 | 1.03 | 0.741 | 0.487 | 0.443 | 0.401 | 0.332 | 0.817 | 0.766 | 0.7 | 0.366 | 0.33 | 0.245 | 0.671 | 0.472 | 0.338 |
| NCI-H727 | 1.05 | 0.68 | 0.544 | 0.594 | 0.445 | 0.5 | 0.817 | 0.447 | 0.509 | 0.627 | 0.486 | 0.412 | 0.754 | 0.612 | 0.598 | 0.707 | 0.649 | 0.391 |
| NCI-H838 | 0.957 | 0.737 | 0.453 | 0.935 | 0.802 | 0.357 | 0.566 | 0.397 | 0.195 | 0.895 | 0.828 | 0.725 | 0.745 | 0.564 | 0.302 | 0.767 | 0.57 | 0.354 |
| NCI-H1355 | 0.945 | 0.664 | 0.578 | 0.716 | 0.55 | 0.336 | 0.433 | 0.351 | 0.277 | 0.699 | 0.571 | 0.358 | 0.731 | 0.52 | 0.278 | 0.999 | 0.653 | 0.327 |
| NCI-H1437 | 1 | 0.837 | 0.398 | 0.92 | 0.707 | 0.45 | 0.334 | 0.249 | 0.333 | 1.17 | 1 | 0.395 | 0.673 | 0.603 | 0.537 | 0.864 | 0.894 | 0.702 |
| NCI-H1651 | 0.928 | 0.851 | 0.595 | 0.915 | 0.847 | 0.69 | 0.274 | 0.307 | 0.214 | 0.521 | 0.434 | 0.359 | 0.177 | 0.177 | 0.172 | 0.749 | 0.762 | 0.569 |
| NCI-H1666 | 1.01 | 0.818 | 0.651 | 0.968 | 0.718 | 0.509 | 0.547 | 0.559 | 0.487 | 0.852 | 0.81 | 0.552 | 0.687 | 0.749 | 0.686 | 0.974 | 0.743 | 0.494 |
| NCI-H1734 | 0.918 | 0.648 | 0.397 | 0.582 | 0.464 | 0.32 | 0.341 | 0.265 | 0.183 | 0.495 | 0.321 | 0.201 | 0.56 | 0.364 | 0.226 | 0.574 | 0.38 | 0.213 |
| NCI-H1755 | 1.01 | 0.901 | 0.737 | 0.949 | 0.878 | 0.514 | 0.625 | 0.522 | 0.457 | 0.471 | 0.382 | 0.328 | 0.932 | 0.715 | 0.362 | 0.848 | 0.805 | 0.481 |
| NCI-H1792 | 0.91 | 0.495 | 0.213 | 0.664 | 0.6 | 0.236 | 0.351 | 0.115 | 0.0784 | 0.467 | 0.347 | 0.165 | 0.382 | 0.0789 | 0.0824 | 0.971 | 0.848 | 0.269 |
| NCI-H1915 | 1.04 | 0.996 | 0.952 | 0.994 | 1.07 | 1.03 | 0.368 | 0.389 | 0.366 | 0.777 | 0.736 | 0.624 | 0.288 | 0.267 | 0.244 | 0.841 | 0.892 | 0.863 |
| NCI-H1944 | 0.856 | 0.646 | 0.371 | 0.884 | 0.638 | 0.441 | 0.183 | 0.148 | 0.126 | 0.406 | 0.345 | 0.262 | 0.334 | 0.349 | 0.203 | 1 | 0.858 | 0.439 |
| NCI-H1975 | 0.911 | 0.672 | 0.374 | 0.695 | 0.518 | 0.253 | 0.412 | 0.292 | 0.162 | 0.711 | 0.446 | 0.305 | 0.882 | 0.521 | 0.239 | 0.925 | 0.736 | 0.307 |
| NCI-H1993 | 0.806 | 0.632 | 0.623 | 0.652 | 0.649 | 0.672 | 0.558 | 0.552 | 0.586 | 0.45 | 0.403 | 0.382 | 1.05 | 0.624 | 0.398 | 0.83 | 0.618 | 0.63 |
| NCI-H2085 | 0.987 | 1.01 | 0.495 | 1.06 | 0.787 | 0.36 | 0.869 | 0.429 | 0.303 | 1.06 | 0.84 | 0.385 | 0.829 | 0.713 | 0.303 | 0.789 | 0.886 | 0.407 |
| NCI-H2087 | 1.02 | 0.723 | 0.504 | 1.19 | 0.886 | 0.751 | 0.43 | 0.267 | 0.289 | 1.29 | 1.55 | 0.772 | 0.602 | 0.344 | 0.291 | 0.795 | 0.935 | 0.734 |
| NCI-H2126 | 0.972 | 0.687 | 0.495 | 0.696 | 0.583 | 0.474 | 0.489 | 0.425 | 0.292 | 1.02 | 0.795 | 0.657 | 0.888 | 0.725 | 0.412 | 0.965 | 0.866 | 0.559 |
| NCI-H2170 | 0.813 | 0.608 | 0.587 | 0.704 | 0.643 | 0.484 | 0.459 | 0.432 | 0.375 | 0.684 | 0.376 | 0.375 | 0.534 | 0.456 | 0.226 | 1.04 | 0.786 | 0.418 |
| NCI-H2347 | 0.972 | 0.978 | 0.579 | 1.05 | 1.05 | 0.69 | 0.329 | 0.226 | 0.244 | 0.843 | 0.529 | 0.375 | 0.527 | 0.514 | 0.407 | 0.827 | 0.685 | 0.293 |

— the supplement of paper PMC10307832
